Test results reported in patent US10934274B2, “Quinoline derivatives as TAM RTK inhibitors” (Qurient Co., Ltd., priority 2015, dated 2021).

Experiments:
TYRO3 = target: T1, TYRO3 (Homo sapiens, UniProt Q06418); test: LanthaScreen Eu kinase binding assay, TYRO3; details: Tracer 236
T1 construct: purchased Life Technologies
T1 sequence (Q06418 41-890): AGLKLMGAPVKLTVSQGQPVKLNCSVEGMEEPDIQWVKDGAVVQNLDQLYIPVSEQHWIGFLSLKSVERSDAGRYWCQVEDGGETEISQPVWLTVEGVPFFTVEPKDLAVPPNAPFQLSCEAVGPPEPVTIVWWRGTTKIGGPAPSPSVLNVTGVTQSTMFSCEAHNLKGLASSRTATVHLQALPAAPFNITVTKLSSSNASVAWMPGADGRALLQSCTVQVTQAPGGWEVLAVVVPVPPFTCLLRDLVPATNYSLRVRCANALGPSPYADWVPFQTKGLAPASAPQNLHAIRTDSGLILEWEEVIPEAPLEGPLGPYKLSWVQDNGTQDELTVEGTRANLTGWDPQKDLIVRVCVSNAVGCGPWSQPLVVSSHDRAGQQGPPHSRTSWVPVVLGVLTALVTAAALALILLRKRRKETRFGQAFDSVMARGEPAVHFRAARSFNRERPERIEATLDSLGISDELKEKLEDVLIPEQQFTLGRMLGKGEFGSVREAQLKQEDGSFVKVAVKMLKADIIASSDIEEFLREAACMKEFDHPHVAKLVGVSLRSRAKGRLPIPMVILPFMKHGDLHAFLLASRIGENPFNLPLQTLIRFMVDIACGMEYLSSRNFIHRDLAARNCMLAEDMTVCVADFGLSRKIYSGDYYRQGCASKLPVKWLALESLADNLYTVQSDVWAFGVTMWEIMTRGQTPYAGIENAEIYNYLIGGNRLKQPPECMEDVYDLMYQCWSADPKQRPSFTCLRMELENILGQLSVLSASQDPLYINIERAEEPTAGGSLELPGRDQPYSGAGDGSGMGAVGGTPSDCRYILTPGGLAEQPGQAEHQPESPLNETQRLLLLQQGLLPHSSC

Met = target: T2, Met (Homo sapiens, UniProt P08581); test: LanthaScreen Eu kinase binding assay, Met; details: Tracer 236, read-out: cMet kinase binding activity (Kd)
T2 construct: purchased Life Technologies
T2 sequence (P08581 25-1390): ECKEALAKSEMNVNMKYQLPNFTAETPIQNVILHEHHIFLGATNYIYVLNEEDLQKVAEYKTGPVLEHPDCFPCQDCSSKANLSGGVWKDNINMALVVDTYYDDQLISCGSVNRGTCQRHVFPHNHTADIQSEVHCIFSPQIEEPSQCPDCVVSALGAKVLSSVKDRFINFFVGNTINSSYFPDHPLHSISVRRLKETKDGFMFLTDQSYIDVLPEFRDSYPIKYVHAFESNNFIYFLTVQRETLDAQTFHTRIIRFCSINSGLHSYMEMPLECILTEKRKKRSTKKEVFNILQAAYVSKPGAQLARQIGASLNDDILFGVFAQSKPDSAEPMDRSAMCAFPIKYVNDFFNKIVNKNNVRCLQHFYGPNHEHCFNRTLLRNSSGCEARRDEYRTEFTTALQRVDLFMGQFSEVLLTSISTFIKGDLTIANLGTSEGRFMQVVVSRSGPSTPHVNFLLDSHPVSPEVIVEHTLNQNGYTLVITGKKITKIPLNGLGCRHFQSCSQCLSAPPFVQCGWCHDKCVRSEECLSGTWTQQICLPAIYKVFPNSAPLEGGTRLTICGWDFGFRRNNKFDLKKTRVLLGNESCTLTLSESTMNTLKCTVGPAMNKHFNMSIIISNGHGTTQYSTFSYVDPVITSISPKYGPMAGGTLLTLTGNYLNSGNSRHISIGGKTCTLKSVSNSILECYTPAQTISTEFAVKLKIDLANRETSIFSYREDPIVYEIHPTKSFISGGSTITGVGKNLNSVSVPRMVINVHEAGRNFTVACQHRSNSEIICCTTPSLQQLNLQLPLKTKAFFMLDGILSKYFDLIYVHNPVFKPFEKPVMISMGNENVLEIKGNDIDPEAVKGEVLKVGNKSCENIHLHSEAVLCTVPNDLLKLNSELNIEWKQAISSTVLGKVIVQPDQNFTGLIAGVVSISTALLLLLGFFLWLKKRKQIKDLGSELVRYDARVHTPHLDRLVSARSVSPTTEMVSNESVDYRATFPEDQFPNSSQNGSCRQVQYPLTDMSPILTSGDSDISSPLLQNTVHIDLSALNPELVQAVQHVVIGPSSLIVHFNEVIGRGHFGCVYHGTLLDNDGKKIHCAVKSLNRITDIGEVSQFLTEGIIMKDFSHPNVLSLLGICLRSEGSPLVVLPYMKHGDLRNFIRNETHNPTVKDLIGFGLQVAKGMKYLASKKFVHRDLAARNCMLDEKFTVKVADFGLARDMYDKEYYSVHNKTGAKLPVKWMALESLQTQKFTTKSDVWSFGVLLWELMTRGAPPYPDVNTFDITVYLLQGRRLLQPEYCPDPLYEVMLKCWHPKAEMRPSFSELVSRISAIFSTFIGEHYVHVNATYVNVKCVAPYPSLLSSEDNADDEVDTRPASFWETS

Mer = target: T3, Mer (Homo sapiens, UniProt Q12866); test: LanthaScreen Eu kinase binding assay, Mer; details: Tracer 236
T3 construct: purchased Life Technologies
T3 sequence (Q12866 21-999): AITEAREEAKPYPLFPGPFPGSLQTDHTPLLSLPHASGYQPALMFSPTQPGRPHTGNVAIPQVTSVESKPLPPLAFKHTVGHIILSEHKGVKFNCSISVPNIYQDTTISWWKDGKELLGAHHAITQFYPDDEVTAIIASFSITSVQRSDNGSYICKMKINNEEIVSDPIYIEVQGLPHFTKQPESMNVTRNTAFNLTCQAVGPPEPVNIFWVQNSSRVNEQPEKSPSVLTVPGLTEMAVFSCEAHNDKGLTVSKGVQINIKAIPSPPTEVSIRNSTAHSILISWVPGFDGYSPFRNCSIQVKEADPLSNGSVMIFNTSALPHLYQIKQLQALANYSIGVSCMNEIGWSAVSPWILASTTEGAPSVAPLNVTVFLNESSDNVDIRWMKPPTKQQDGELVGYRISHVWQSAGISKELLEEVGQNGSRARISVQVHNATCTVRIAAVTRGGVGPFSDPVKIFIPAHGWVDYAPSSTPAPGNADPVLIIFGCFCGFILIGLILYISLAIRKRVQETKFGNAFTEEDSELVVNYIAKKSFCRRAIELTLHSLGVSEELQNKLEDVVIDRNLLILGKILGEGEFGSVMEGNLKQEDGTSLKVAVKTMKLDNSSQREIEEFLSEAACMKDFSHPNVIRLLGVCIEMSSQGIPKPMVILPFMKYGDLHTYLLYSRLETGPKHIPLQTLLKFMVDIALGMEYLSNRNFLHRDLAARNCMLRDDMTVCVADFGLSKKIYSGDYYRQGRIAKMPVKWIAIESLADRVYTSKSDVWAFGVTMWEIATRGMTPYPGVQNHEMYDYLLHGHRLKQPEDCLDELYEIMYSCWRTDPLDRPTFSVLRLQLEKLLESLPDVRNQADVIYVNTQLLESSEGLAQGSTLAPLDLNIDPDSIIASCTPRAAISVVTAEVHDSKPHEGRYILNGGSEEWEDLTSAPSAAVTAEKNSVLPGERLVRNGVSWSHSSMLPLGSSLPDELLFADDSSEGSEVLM

Compound | Kd (TYRO3) [nM] | Kd (Met) [nM] | Kd (Mer) [nM]
CCOc1cn(-c2ccncc2Cl)nc1C(=O)Nc1ccc(Oc2ccnc3cc(OC)c(OC)cc23)cn1 [Compound 26] | 100 to 1000 | < 100 | < 100
CCOc1cn(C)nc1C(=O)Nc1ccc(Oc2ccnc3cc(OC)c(OC)cc23)cn1 [Compound 29] | 100 to 1000 | 100 to 1000 | < 100
CCOc1cnn(C)c1C(=O)Nc1ccc(Oc2ccnc3cc(OC)c(OC)cc23)cn1 [Compound 30] | ≥ 1000 | 100 to 1000 | 100 to 1000
CCOc1cn(-c2ccc(N(C)C)cc2Cl)nc1C(=O)Nc1ccc(Oc2ccnc3cc(OC)c(OC)cc23)cn1 [Compound 31] | ≥ 1000 | 100 to 1000 | < 100
CCOc1cn(CCn2cccn2)nc1C(=O)Nc1ccc(Oc2ccnc3cc(OC)c(OC)cc23)cn1 [Compound 37] | 100 to 1000 | 100 to 1000 | < 100
CCOc1cn(CCOC(F)(F)F)nc1C(=O)Nc1ccc(Oc2ccnc3cc(OC)c(OC)cc23)cn1 [Compound 38] | 100 to 1000 | < 100 | < 100
CCOc1cn(-c2ccnnc2)nc1C(=O)Nc1ccc(Oc2ccnc3cc(OC)c(OC)cc23)cn1 [Compound 40] | ≥ 1000 | < 100 | < 100
CCOc1cn(-c2ccc(C#N)cn2)nc1C(=O)Nc1ccc(Oc2ccnc3cc(OC)c(OC)cc23)cn1 [Compound 43] | ≥ 1000 | ≥ 1000 | ≥ 1000
CCOc1oc(-c2cccnc2)nc1C(=O)Nc1ccc(Oc2ccnc3cc(OC)c(OC)cc23)cn1 [Compound 44] | ≥ 1000 | < 100 | < 100
CCOc1cnn(-c2ccco2)c1C(=O)Nc1ccc(Oc2ccnc3cc(OC)c(OC)cc23)cn1 [Compound 58] | 100 to 1000 | 100 to 1000 | 100 to 1000
CCOc1cn(CC(C)=O)nc1C(=O)Nc1ccc(Oc2ccnc3cc(OC)c(OC)cc23)cn1 [Compound 66] | 100 to 1000 | 100 to 1000 | < 100
CCOc1cn(C(C)(C)C(=O)NC)nc1C(=O)Nc1ccc(Oc2ccnc3cc(OC)c(OC)cc23)cn1 [Compound 68] | ≥ 1000 | 100 to 1000 | < 100
CCOc1cn(-c2cnccc2CN(C)C)nc1C(=O)Nc1ccc(Oc2ccnc3cc(OC)c(OC)cc23)cn1 [Compound 73] | 100 to 1000 | 100 to 1000 | < 100
CCOc1cn(C2CCN(C)C2)nc1C(=O)Nc1ccc(Oc2ccnc3cc(OC)c(OC)cc23)cc1F (stereo not drawn) [Compound 212] | 100 to 1000 | 100 to 1000 | 100 to 1000
CCOc1cnn(C2CCCN(C)C2)c1C(=O)Nc1ccc(Oc2ccnc3cc(OC)c(OC)cc23)cc1F (stereo not drawn) [Compound 213] | ≥ 1000 | ≥ 1000 | 100 to 1000
CCOc1cn(C2CCCN(C(C)=O)C2)nc1C(=O)Nc1ccc(Oc2ccnc3cc(OC)c(OC)cc23)cc1F (stereo not drawn) [Compound 224] | 100 to 1000 | 100 to 1000 | < 100

Now from value to compound:

Kd (TYRO3) [nM] | Kd (Met) [nM] | Kd (Mer) [nM] | Compound
100 to 1000 | < 100 | < 100 | CCOc1cn(-c2ccc(OC)cc2)nc1C(=O)Nc1ccc(Oc2ccnc3cc(OC)c(OC)cc23)cn1 [Compound 1]
< 100 | < 100 | < 100 | CCOc1cn(-c2cccs2)nc1C(=O)Nc1ccc(Oc2ccnc3cc(OC)c(OC)cc23)cn1 [Compound 17]
< 100 | 100 to 1000 | < 100 | CCOc1cn(-c2ccsc2)nc1C(=O)Nc1ccc(Oc2ccnc3cc(OC)c(OC)cc23)cn1 [Compound 18]
< 100 | < 100 | < 100 | CCOc1cn(-c2cccnc2Cl)nc1C(=O)Nc1ccc(Oc2ccnc3cc(OC)c(OC)cc23)cn1 [Compound 19]
100 to 1000 | 100 to 1000 | 100 to 1000 | CCOc1cnn(-c2cccs2)c1C(=O)Nc1ccc(Oc2ccnc3cc(OC)c(OC)cc23)cn1 [Compound 20]
100 to 1000 | 100 to 1000 | 100 to 1000 | CCOc1cnn(-c2ccsc2)c1C(=O)Nc1ccc(Oc2ccnc3cc(OC)c(OC)cc23)cn1 [Compound 21]
< 100 | < 100 | < 100 | CCOc1cn(-c2cccnc2C)nc1C(=O)Nc1ccc(Oc2ccnc3cc(OC)c(OC)cc23)cn1 [Compound 23]
< 100 | 100 to 1000 | < 100 | CCOc1cn(CC)nc1C(=O)Nc1ccc(Oc2ccnc3cc(OC)c(OC)cc23)cn1 [Compound 27]
< 100 | 100 to 1000 | < 100 | CCOc1cn(-c2cc[nH]c2)nc1C(=O)Nc1ccc(Oc2ccnc3cc(OC)c(OC)cc23)cn1 [Compound 32]
< 100 | < 100 | < 100 | CCOc1cn(-c2ccoc2)nc1C(=O)Nc1ccc(Oc2ccnc3cc(OC)c(OC)cc23)cn1 [Compound 33]
< 100 | < 100 | < 100 | CCOc1cn(-c2ccncc2C)nc1C(=O)Nc1ccc(Oc2ccnc3cc(OC)c(OC)cc23)cn1 [Compound 34]
< 100 | < 100 | < 100 | CCOc1cn(-c2cnccn2)nc1C(=O)Nc1ccc(Oc2ccnc3cc(OC)c(OC)cc23)cn1 [Compound 36]
< 100 | < 100 | < 100 | CCOc1cn(-c2cnsc2)nc1C(=O)Nc1ccc(Oc2ccnc3cc(OC)c(OC)cc23)cn1 [Compound 39]
< 100 | < 100 | < 100 | CCOc1sc(-c2cccnc2)nc1C(=O)Nc1ccc(Oc2ccnc3cc(OC)c(OC)cc23)cn1 [Compound 45]
< 100 | 100 to 1000 | < 100 | CCOc1cn(CC2CCO2)nc1C(=O)Nc1ccc(Oc2ccnc3cc(OC)c(OC)cc23)cn1 (stereo not drawn) [Compound 48]
< 100 | 100 to 1000 | 100 to 1000 | CCOc1cn(-c2cnc(C#N)nc2)nc1C(=O)Nc1ccc(Oc2ccnc3cc(OC)c(OC)cc23)cn1 [Compound 55]
< 100 | < 100 | < 100 | CCOc1cn(-c2ccn(C)c2)nc1C(=O)Nc1ccc(Oc2ccnc3cc(OC)c(OC)cc23)cn1 [Compound 56]
< 100 | < 100 | < 100 | CCOc1cn(-c2ccco2)nc1C(=O)Nc1ccc(Oc2ccnc3cc(OC)c(OC)cc23)cn1 [Compound 57]
< 100 | < 100 | < 100 | CCOc1cn(-c2ncco2)nc1C(=O)Nc1ccc(Oc2ccnc3cc(OC)c(OC)cc23)cn1 [Compound 59]
< 100 | < 100 | < 100 | CCOc1cn(-c2cnccc2CCCN(C)C)nc1C(=O)Nc1ccc(Oc2ccnc3cc(OC)c(OC)cc23)cn1 [Compound 61]
< 100 | < 100 | < 100 | CCOc1cn(CCOC)nc1C(=O)Nc1ccc(Oc2ccnc3cc(OC)c(OC)cc23)cn1 [Compound 64]
< 100 | < 100 | < 100 | CCOc1cn(-c2cnccc2CCN(C)C)nc1C(=O)Nc1ccc(Oc2ccnc3cc(OC)c(OC)cc23)cn1 [Compound 65]
< 100 | < 100 | < 100 | CCOc1cn(Cc2cnccn2)nc1C(=O)Nc1ccc(Oc2ccnc3cc(OC)c(OC)cc23)cc1F [Compound 215]
